In publication PMC5766630, “Non-estrogenic Xanthohumol Derivatives Mitigate Insulin Resistance and Cognitive Impairment in High-Fat Diet-induced Obese Mice” (Scientific Reports, 2018):

Assays:
[1] = target: T1, full-length purified human estrogen receptor ERβ (Homo sapiens, UniProt Q92731); test: ERβ competitive radiometric binding assay; settings: RBA = IC50[estradiol]/IC50[compound] × 100, estradiol = 100; 2 nM [3H]-estradiol tracer, 18–24 h at 0 °C
T1 construct: full-length purified human estrogen receptors ERα and ERβ
Description: . The receptors and ligands were incubated for 18–24 h at 0 °C and then the receptor–ligand complexes separated using hydroxyapatite (BioRad, Hercules, CA, USA). […]

[2] = tested on: C57BL/6J mice fed a high-fat diet; test: Glucose tolerance test; format: in vivo, mouse; settings: 30 mg/kg/day, 6 h fast, glucose 2 g/kg i.p., n = 5; for Glucose tolerance test AUC, decrease compared with control, 4 weeks: 4 weeks of feeding; for Glucose tolerance test AUC, decrease compared with control, 11 weeks: 11 weeks of feeding
Description: Glucose tolerance tests were conducted after 4 and 11 weeks of feeding the experimental diets. Five mice from each treatment group were used in each glucose tolerance assay. Mice were fasted for 6 h prior to baseline blood glucose testing. Blood was collected from the mice by tail puncture, and glucose measurements were taken using a One Touch UltraMini glucometer (LifeScan, Inc., Milpitas, CA, USA). Mice were weighed and then given an i.p. injection of glucose equal to 2 g/kg body weight. Glucose readings were taken at 0 minutes (prior to glucose injection), and at 15 min, 30 min, 1 h, and 2 h after glucose injection.
Body weight, food intake, and metabolic measurements: data were analyzed using a one-way ANOVA in PROC GLM for single measures within animals (i.e., liver, plasma, and muscle metabolic measures) and a repeated-measures-in-time design ANOVA in PROC MIXED for repeated measures within animals (i.e., body weight, feed intake, and feed efficiency). The area-under-the-curve (AUC) for the glucose tolerance tests were calculated using the trapezoidal rule. Before statistical analysis, data were examined for variance homogeneity and normality. To achieve normality, liver, plasma, and muscle XN data and plasma insulin data were natural log-transformed. For statistical comparisons, the control group was compared with each XN metabolite group.

[3] = tested on: C57BL/6J mice fed a high-fat diet; test: Water maze: spatial learning and memory; format: in vivo, mouse; settings: for Reached platform location faster than control (latency to first cross), probe trial: probe trial 24 h after last hidden platform trial; for Number of mice that spent more time in the correct quadrant than in any other quadrant / Number of mice that reached the platform location within 35 seconds: probe trial; for Number of mice that spent more time in the correct quadrant than in any other quadrant: control 3 out of 12; for Number of mice that reached the platform location within 35 seconds: control 5 out of 12; for Number of mice that reached the hidden platform at least twice within 50 seconds: trials 6 to 8, control 3 out of 12
Description: After 13 weeks of feeding the experimental diets, general task learning, spatial learning and memory, and long-term spatial memory retention were tested using the water maze, as previously described[97],[98]. Briefly, the water maze consisted of a circular pool, filled with water (24 °C) made opaque white with non-toxic tempera paint (Prang, Dixon Ticonderoga Company, Heathrow, FL, USA). Spatial cues consisted of figures of geometric shape and other items such as toys and pieces of cloth. The cues were placed on the walls of both the room and the sides of the tank and were present throughout all water maze trials. All trials consisted of a maximum of 60 s in the water searching for the platform and 10 s on the platform. […] Trials on the same day were separated by 10 min. Mice were first trained to locate a visible escape platform (plexiglass circle, 12 cm diameter) submerged 2 cm below the surface of the water, by the use of a cue (a colored cylinder, 2.5 cm radius, 8 cm height) during the visible platform trials (1–2). The location of the platform during visible platform trials was moved between trials to avoid procedural biases in task learning to a specific quadrant. Subsequent to the visible platform training, mice were trained to locate the platform without a visible cue during the hidden platform trials (3–8), which required the mice to rely on extra-maze cues for spatial reference and orientation. To analyze learning curves, time to reach the platform (latency) and swim speeds were assessed. Spatial memory retention was assessed 24 h following the conclusion of the eighth trial of hidden platform training in the probe trial (no platform). For data analysis, the pool was divided conceptually into four quadrants. Time spent searching in the target quadrant compared to the time spent in the three non-target quadrants and the latency to the first crossing of the platform location were analyzed. Following the probe trial, mice were administered two additional visible platform trials. Thigmotaxis, a tendency to remain close the walls, is commonly used as an index of anxiety in mice. For thigmotaxis, we analyzed the time (%) mice spent swimming in the outer part of the pool (<10 cm from edge of pool) during the visible trials. Water maze performance was tracked and analyzed using Ethovision software set at 6 samples/s (Noldus Information Technology, Leesburg, VA). Heat map images were generated using EthoVision Heatmap Generator software and representative images were selected from mice closest to the group mean values for time spent in the quadrant target.
Water maze learning curves: data, except for spatial learning, were analyzed using a one-way ANOVA for single measures within animals and a repeated-measures-in-time design ANOVA for repeated measures within animals. To evaluate spatial learning, we first compared at each session the control versus each XN metabolite group. For further analysis of spatial learning, the first 3 sessions were used for training of spatial learning and the last 3 session for spatial learning. […] To show spatial learning, mice had to reach the platform during the last 3 evaluation sessions at least twice within 50 seconds. Fisher’s exact test was used to compare control versus each XN metabolite group.

T1 sequence (Q92731 whole entry): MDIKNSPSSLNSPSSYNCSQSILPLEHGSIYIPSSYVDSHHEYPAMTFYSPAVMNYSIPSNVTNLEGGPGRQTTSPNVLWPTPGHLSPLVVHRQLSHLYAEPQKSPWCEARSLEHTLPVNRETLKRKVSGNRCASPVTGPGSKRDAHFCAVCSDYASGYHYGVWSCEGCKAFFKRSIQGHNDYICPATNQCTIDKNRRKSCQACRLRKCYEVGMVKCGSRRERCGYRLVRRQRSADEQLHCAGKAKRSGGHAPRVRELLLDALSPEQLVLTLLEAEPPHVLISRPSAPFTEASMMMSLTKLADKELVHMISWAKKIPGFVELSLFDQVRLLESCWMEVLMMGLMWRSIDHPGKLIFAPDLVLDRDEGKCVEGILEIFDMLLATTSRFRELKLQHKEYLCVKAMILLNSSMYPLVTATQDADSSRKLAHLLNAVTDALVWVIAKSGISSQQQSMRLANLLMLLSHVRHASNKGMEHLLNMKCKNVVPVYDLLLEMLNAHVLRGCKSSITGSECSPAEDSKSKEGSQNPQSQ

Row | RBA ERβ (relative binding affinity) [1] | Compound | Glucose tolerance test AUC, decrease compared with control, 4 weeks [2] [%] | Glucose tolerance test AUC, decrease compared with control, 11 weeks [2] [%] | Slower swim speed versus HFD only ([3]; during the hidden platform trials) [%] | Reached hidden platform faster than HFD only, average of trials 6 to 8 ([3]; hidden platform) [%] | Reached platform location faster than control (latency to first cross), probe trial [3] [%] | Number of mice that spent more time in the correct quadrant than in any other quadrant [3] | Number of mice that reached the platform location within 35 seconds [3] | Number of mice that reached the hidden platform at least twice within 50 seconds [3] | Reached hidden platform faster than HFD only, trial 6 ([3]; hidden platform) [%] | Reached hidden platform faster than HFD only, trial 8 ([3]; hidden platform) [%] | Reached hidden platform faster than HFD only, first hidden platform trial (trial #3) ([3]; hidden platform trial 3) [%] | Reached visible platform faster than control, first trial ([3]; visible platform trial 1, HFD mice, 30 mg/kg/day, 13 weeks) [%] | More time in the correct (Target) quadrant than control ([3]; 60-s probe trial) [%] | Reached hidden platform faster than HFD only, trial 7 ([3]; hidden platform) [%]
1 | 0.009 ± 0.002 | COc1cc(O)c(CC=C(C)C)c(O)c1C(=O)CCc1ccc(O)cc1 [DXN, α,β-Dihydroxanthohumol] | 46 | 35 | 10 | 28 | 58 | 9 out of 12 | all but one | 9 out of 12 |  |  |  |  |  | 
2 | 0.009 ± 0.002 | COc1cc(O)c(CCC(C)C)c(O)c1C(=O)CCc1ccc(O)cc1 [TXN, tetrahydroxanthohumol] | 61 | 45 |  | 45 | 45 | all but one | all but one | all | 44 | 35 | 18 | 24 |  | 

Row | Compound | RBA ERβ (relative binding affinity) [1] | Glucose tolerance test AUC, decrease compared with control, 4 weeks [2] [%] | Glucose tolerance test AUC, decrease compared with control, 11 weeks [2] [%] | Slower swim speed versus HFD only ([3]; during the hidden platform trials) [%] | Reached hidden platform faster than HFD only, average of trials 6 to 8 ([3]; hidden platform) [%] | Reached platform location faster than control (latency to first cross), probe trial [3] [%] | Number of mice that spent more time in the correct quadrant than in any other quadrant [3] | Number of mice that reached the platform location within 35 seconds [3] | Number of mice that reached the hidden platform at least twice within 50 seconds [3] | Reached hidden platform faster than HFD only, trial 6 ([3]; hidden platform) [%] | Reached hidden platform faster than HFD only, trial 8 ([3]; hidden platform) [%] | Reached hidden platform faster than HFD only, first hidden platform trial (trial #3) ([3]; hidden platform trial 3) [%] | Reached visible platform faster than control, first trial ([3]; visible platform trial 1, HFD mice, 30 mg/kg/day, 13 weeks) [%] | More time in the correct (Target) quadrant than control ([3]; 60-s probe trial) [%] | Reached hidden platform faster than HFD only, trial 7 ([3]; hidden platform) [%]
3 | COc1cc(O)c(CC=C(C)C)c(O)c1C(=O)/C=C/c1ccc(O)cc1 [XN, 3′-[3,3-dimethylallyl]-2′,4′,4-trihydroxy-6′-methoxychalcone] | 0.003 ± 0.001 | 43 | 12 |  |  | 45 | all but one | all but one | all | 47 | 49 |  |  | 6.8 | 43
